From paper PMC10958117, “G-site residue S67 is involved in the fungicide-degrading activity of a tau class glutathione S-transferase from Carica papaya” (The Journal of Biological Chemistry, 2024)

Key:
[1] = target: T1, tau class glutathione S-transferase from Carica papaya (TCpGST) (Carica papaya, UniProt O49821); assay: HPLC degradation assay ([…] after […] h); S67A inactive; format: biochemical; design: gene PGST1; full-length ORF (657 bp), C-terminal His6, pET-30a, E. coli BL21(DE3), Ni-NTA purified; settings: 120 min
[2] = target: T1, tau class glutathione S-transferase from Carica papaya (TCpGST); assay: as above; format: biochemical; design: gene PGST1; settings: 120 min

T1 sequence (O49821 1-218): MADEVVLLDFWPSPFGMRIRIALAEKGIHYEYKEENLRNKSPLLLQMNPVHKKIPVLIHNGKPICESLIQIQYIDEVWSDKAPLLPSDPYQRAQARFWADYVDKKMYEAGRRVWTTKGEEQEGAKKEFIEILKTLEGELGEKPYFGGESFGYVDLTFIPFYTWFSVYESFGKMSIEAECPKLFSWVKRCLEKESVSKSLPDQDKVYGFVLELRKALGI

Compound | % [1] | % [2]
N#Cc1c(Cl)c(Cl)c(Cl)c(C#N)c1Cl [compound 11, chlorothalonil] | 26% | –
c1ccc2[nH]c(-c3cscn3)nc2c1 [compound 16, thiabendazole] | – | 69%
